Measurements published in patent US10875874B2, “Ginkgolide B derivative and preparation method and use thereof” (Chengdu Baiyu Ginkgolide Pharmaceuticals Co., Ltd., priority 2015, dated 2020).
Converted amounts (≈) assume the structure as drawn. Marks after values point to notes of the source that are not given here.

What was measured:
[1] = Weekly body weight of SHR rats; type: in vivo, rat
Summary of the method: (§1)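 Male and female SHR rats (200-250 g, 8/group) dosed intragastrically once daily for 8 weeks with test compounds at 60 or 120 mg/kg/d or captopril 27 mg/kg; Wistar and SHR controls received distilled water. Body weight and food intake observed during treatment.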

[2] = tested on: spontaneously hypertensive rats (SHR); assay: Caudal artery systolic pressure of spontaneously hypertensive rats, single administration; type: in vivo, rat; conditions: x ± s, n = 8
Summary of the method: (§2)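 SHR rats of both sexes (200–250 g, 8/group) dosed intragastrically with 60 or 120 mg/kg/d, or captopril 27 mg/kg, once daily for 8 weeks; Wistar rats and vehicle SHR served as controls. Tail-cuff systolic pressure taken as the mean of 3 readings, measured before dosing and 30–120 min after the first dose, or 30 min post-dose on days 1–56 for chronic treatment.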

[3] = Weekly food intake of SHR rats; type: in vivo, rat
Summary of the method: as §1

Water solubility test = conditions: purified water, thermodynamic from solid
Procedure: Measuring method: samples are ground to obtain fine powder, target compounds are quantitatively weighed, the weighed compounds are added into purified water, and the solubility of the compounds is investigated by ultrasonics.

[4] = tested on: spontaneously hypertensive rats (SHR); assay: Caudal artery systolic pressure of spontaneously hypertensive rats, 8 weeks of continuous medication; type: in vivo, rat; conditions: x ± s, n = 8
Summary of the method: as §2

[5] = 60 mg/kg/d intragastric, week 0
[6] = 60 mg/kg/d intragastric, week 1
[7] = 60 mg/kg/d intragastric, week 2
[8] = 60 mg/kg/d intragastric, week 3
[9] = 60 mg/kg/d intragastric, week 4
[10] = 60 mg/kg/d intragastric, week 5
[11] = 60 mg/kg/d intragastric, week 6
[12] = 60 mg/kg/d intragastric, week 7
[13] = 60 mg/kg/d intragastric, week 8
[14] = 120 mg/kg/d intragastric, week 0
[15] = 120 mg/kg/d intragastric, week 1
[16] = 120 mg/kg/d intragastric, week 2
[17] = 120 mg/kg/d intragastric, week 3
[18] = 120 mg/kg/d intragastric, week 4
[19] = 120 mg/kg/d intragastric, week 5
[20] = 120 mg/kg/d intragastric, week 6
[21] = 120 mg/kg/d intragastric, week 7
[22] = 120 mg/kg/d intragastric, week 8

solubility (Water solubility test): 200 µg/mL (≈ 280 µM)
SMILES: C[C@@H]1C(=O)O[C@H]2[C@H](O)[C@@]34C5C[C@@H](C(C)(C)C)C36[C@@H](OC(=O)[C@@H]6OC(=O)[C@H](c3ccccc3Cl)N3CCc6sccc6C3)O[C@@]4(C(=O)O5)[C@@]12O (some centres unmarked) [BL]
Body weight [1, 5]: 230.9 g | Body weight [1, 6]: 236.4 g | Body weight [1, 7]: 243.1 g | Body weight [1, 8]: 252.8 g | Body weight [1, 9]: 260.9^▴▴ g | Body weight [1, 10]: 265.8^▴▴ g | Body weight [1, 11]: 270.6^▴ g | Body weight [1, 12]: 277.3^▴▴ g | Body weight [1, 13]: 285.4^▴▴ g | Body weight [1, 14]: 230.6 g | Body weight [1, 15]: 251.8^▴▴ g | Body weight [1, 16]: 257.3^▴▴ g | Body weight [1, 17]: 264.1^▴▴ g | Body weight [1, 18]: 270.5^▴▴ g | Body weight [1, 19]: 281.7^▴▴ g | Body weight [1, 20]: 290.3^▴▴ g | Body weight [1, 21]: 302.8^▴▴ g | Body weight [1, 22]: 315.2^▴▴ g | Systolic pressure ([2]; 60 mg/kg intragastric single administration, 30 min): 158.36 ± 10.54 mmHg | Systolic pressure ([2]; 60 mg/kg intragastric single administration, 60 min): 154.68 ± 12.48 mmHg | Systolic pressure ([2]; 60 mg/kg intragastric single administration, 90 min): 152.74 ± 12.58 mmHg | Systolic pressure ([2]; 60 mg/kg intragastric single administration, 120 min): 152.04 ± 10.02 mmHg | Systolic pressure ([2]; 60 mg/kg intragastric single administration, before administration): 165.68 ± 16.35 mmHg | Systolic pressure ([2]; 120 mg/kg intragastric single administration, 30 min): 148.01 ± 5.98 mmHg | Systolic pressure ([2]; 120 mg/kg intragastric single administration, 60 min): 151.36 ± 9.45 mmHg | Systolic pressure ([2]; 120 mg/kg intragastric single administration, 90 min): 152.95 ± 12.54 mmHg | Systolic pressure ([2]; 120 mg/kg intragastric single administration, 120 min): 151.98 ± 9.26 mmHg | Systolic pressure ([2]; 120 mg/kg intragastric single administration, before administration): 164.25 ± 11.69 mmHg | Average dairy food intake [3, 5]: 18.4 g/day | Average dairy food intake [3, 6]: 19.4^▴ g/d | Average dairy food intake [3, 7]: 20.5^▴▴ g/d | Average dairy food intake [3, 8]: 21.0^▴▴ g/d | Average dairy food intake [3, 9]: 20.9^▴▴ g/d | Average dairy food intake [3, 10]: 21.9^▴▴ g/d | Average dairy food intake [3, 11]: 23.5^▴▴ g/d | Average dairy food intake [3, 12]: 24.5^▴▴ g/d | Average dairy food intake [3, 13]: 25.1^▴▴ g/d | Average dairy food intake [3, 14]: 18.6 g/day | Average dairy food intake [3, 15]: 20.0^▴ g/d | Average dairy food intake [3, 16]: 20.8^▴▴ g/d | Average dairy food intake [3, 17]: 21.9^▴▴ g/d | Average dairy food intake [3, 18]: 22.7^▴▴ g/d | Average dairy food intake [3, 19]: 23.5^▴▴ g/d | Average dairy food intake [3, 20]: 24.6^▴▴ g/d | Average dairy food intake [3, 21]: 25.1^▴▴ g/d | Average dairy food intake [3, 22]: 26.7^▴▴ g/d | Systolic pressure ([4]; 60 mg/kg/d intragastric continuous, 1 d, 30 min after administration): 154.08 ± 11.54 mmHg | Systolic pressure ([4]; 60 mg/kg/d intragastric continuous, 7 d, 30 min after administration): 156.92 ± 9.82 mmHg | Systolic pressure ([4]; 60 mg/kg/d intragastric continuous, 13 d, 30 min after administration): 156.07 ± 8.52 mmHg | Systolic pressure ([4]; 60 mg/kg/d intragastric continuous, 19 d, 30 min after administration): 153.96 ± 11.07 mmHg | Systolic pressure ([4]; 60 mg/kg/d intragastric continuous, 25 d, 30 min after administration): 154.57 ± 9.74 mmHg | Systolic pressure ([4]; 60 mg/kg/d intragastric continuous, 35 d, 30 min after administration): 153.67 ± 11.58 mmHg | Systolic pressure ([4]; 60 mg/kg/d intragastric continuous, 49 d, 30 min after administration): 149.68 ± 10.42 mmHg | Systolic pressure ([4]; 60 mg/kg/d intragastric continuous, 56 d, 30 min after administration): 153.62 ± 9.47 mmHg | Systolic pressure ([4]; 60 mg/kg/d intragastric continuous, before administration): 165.68 ± 16.35 mmHg | Systolic pressure ([4]; 120 mg/kg/d intragastric continuous, 1 d, 30 min after administration): 153.56 ± 8.15 mmHg | Systolic pressure ([4]; 120 mg/kg/d intragastric continuous, 7 d, 30 min after administration): 152.74 ± 10.25 mmHg | Systolic pressure ([4]; 120 mg/kg/d intragastric continuous, 13 d, 30 min after administration): 149.52 ± 10.24 mmHg | Systolic pressure ([4]; 120 mg/kg/d intragastric continuous, 19 d, 30 min after administration): 149.05 ± 11.09 mmHg | Systolic pressure ([4]; 120 mg/kg/d intragastric continuous, 25 d, 30 min after administration): 147.09 ± 12.68 mmHg | Systolic pressure ([4]; 120 mg/kg/d intragastric continuous, 35 d, 30 min after administration): 147.52 ± 10.64 mmHg | Systolic pressure ([4]; 120 mg/kg/d intragastric continuous, 49 d, 30 min after administration): 150.94 ± 11.06 mmHg | Systolic pressure ([4]; 120 mg/kg/d intragastric continuous, 56 d, 30 min after administration): 149.76 ± 12.63 mmHg | Systolic pressure ([4]; 120 mg/kg/d intragastric continuous, before administration): 164.25 ± 11.69 mmHg
